In ChEMBL document CHEMBL1201861, “Genomics of Drug Sensitity in Cancer screening data, Wellcome Trust Sanger Institute”:

Legend:
Experiment in all cases: cells
Assay type in all cases: functional, cell-based, Homo sapiens
NCI-H1623 = conditions: Homo sapiens, NCI-H1623;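 note: cell viability assay used as the read-out for growth inhibition of NCI-H1623 cells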
Description: SANGER: Inhibition of human NCI-H1623 cell growth in a cell viability assay.

HO-1-N-1 = conditions: Homo sapiens, HO-1-N-1;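 note: growth inhibition of human HO-1-N-1 cells, read out with a cell viability assay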
Description: SANGER: Inhibition of human HO-1-N-1 cell growth in a cell viability assay.

LCLC-103H cell line = conditions: Homo sapiens, LCLC-103H
Description: SANGER: Inhibition of human LCLC-103H cell growth in a cell viability assay.

YKG-1 = conditions: Homo sapiens, YKG-1;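 note: cell growth inhibition, read out with a viability assay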
Description: SANGER: Inhibition of human YKG-1 cell growth in a cell viability assay.

LoVo = conditions: Homo sapiens, LoVo;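 note: growth inhibition of human LoVo cells, read out with a cell viability assay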
Description: SANGER: Inhibition of human LoVo cell growth in a cell viability assay.

RPMI-7951 = conditions: Homo sapiens, RPMI-7951
Description: SANGER: Inhibition of human RPMI-7951 cell growth in a cell viability assay.

HSC-3 = conditions: Homo sapiens, HSC-3
Description: SANGER: Inhibition of human HSC-3 cell growth in a cell viability assay.

SCC-25 = conditions: Homo sapiens, SCC-25;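 note: growth inhibition of SCC-25 cells, measured with a cell viability assay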
Description: SANGER: Inhibition of human SCC-25 cell growth in a cell viability assay.

CAL-62 = conditions: Homo sapiens, CAL-62;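 note: growth inhibition of CAL-62 cells, read out with a cell viability assay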
Description: SANGER: Inhibition of human CAL-62 cell growth in a cell viability assay.

HEC-1 = conditions: Homo sapiens, HEC-1;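 note: growth inhibition of the cell line, read out with a cell viability assay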
Description: SANGER: Inhibition of human HEC-1 cell growth in a cell viability assay.

LK-2 = conditions: Homo sapiens, LK-2;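 note: growth inhibition of LK-2 cells, read out with a viability assay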
Description: SANGER: Inhibition of human LK-2 cell growth in a cell viability assay.

C-33-A = conditions: Homo sapiens, C-33-A;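 note: cell viability assay measuring growth inhibition of C-33-A cells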
Description: SANGER: Inhibition of human C-33-A cell growth in a cell viability assay.

NCI-H2052 = conditions: Homo sapiens, NCI-H2052;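 note: growth inhibition of NCI-H2052 cells, read out with a cell viability assay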
Description: SANGER: Inhibition of human NCI-H2052 cell growth in a cell viability assay.

NCI-H661 = conditions: Homo sapiens, NCI-H661;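 note: cell viability assay read-out, IC50 being the concentration that inhibits growth of the cells by half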
Description: SANGER: Inhibition of human NCI-H661 cell growth in a cell viability assay.

J82 = conditions: Homo sapiens, J82;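 note: growth inhibition of J82 cells, read out with a cell viability assay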
Description: SANGER: Inhibition of human J82 cell growth in a cell viability assay.

HT-3 = conditions: Homo sapiens, HT-3;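 note: growth inhibition measured with a cell viability readout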
Description: SANGER: Inhibition of human HT-3 cell growth in a cell viability assay.

WM-115 = conditions: Homo sapiens, WM-115
Description: SANGER: Inhibition of human WM-115 cell growth in a cell viability assay.

RMG-I = conditions: Homo sapiens, RMG-I;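 note: growth inhibition of human RMG-I cells, read out with a cell viability assay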
Description: SANGER: Inhibition of human RMG-I cell growth in a cell viability assay.

786-0 = conditions: Homo sapiens
Description: SANGER: Inhibition of human 786-0 cell growth in a cell viability assay.

HT-29 = conditions: Homo sapiens, HT-29;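 note: growth inhibition of human HT-29 cells, read out by a cell viability assay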
Description: SANGER: Inhibition of human HT-29 cell growth in a cell viability assay.

EPLC-272H = conditions: Homo sapiens, EPLC-272H
Description: SANGER: Inhibition of human EPLC-272H cell growth in a cell viability assay.

SW1463 = conditions: Homo sapiens, SW1463;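 note: growth inhibition of SW1463 cells, determined with a cell viability assay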
Description: SANGER: Inhibition of human SW1463 cell growth in a cell viability assay.

HCC1806 = conditions: Homo sapiens, HCC1806;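 note: growth inhibition of the cancer cell line, determined with a cell viability assay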
Description: SANGER: Inhibition of human HCC1806 cell growth in a cell viability assay.

SW13 = conditions: Homo sapiens, SW13;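 note: IC50 is inhibition of SW13 cell growth, read out with a cell viability assay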
Description: SANGER: Inhibition of human SW13 cell growth in a cell viability assay.

KYSE-270 = conditions: Homo sapiens, KYSE-270;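 note: cell growth inhibition measured with a viability assay in the human KYSE-270 line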
Description: SANGER: Inhibition of human KYSE-270 cell growth in a cell viability assay.

BT-20 = conditions: Homo sapiens, BT-20;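 note: cell viability assay measuring suppression of growth in human BT-20 cells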
Description: SANGER: Inhibition of human BT-20 cell growth in a cell viability assay.

HT-1080 = conditions: Homo sapiens, HT-1080
Description: SANGER: Inhibition of human HT-1080 cell growth in a cell viability assay.

SK-LU-1 = conditions: Homo sapiens, SK-LU-1;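 note: cell viability assay measuring growth inhibition of human SK-LU-1 cells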
Description: SANGER: Inhibition of human SK-LU-1 cell growth in a cell viability assay.

SK-MES-1 = conditions: Homo sapiens, SK-MES-1;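 note: growth inhibition of human SK-MES-1 cells, read out with a cell viability assay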
Description: SANGER: Inhibition of human SK-MES-1 cell growth in a cell viability assay.

PFSK-1 = conditions: Homo sapiens, PFSK-1;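 note: cell viability assay measuring how strongly compounds suppress growth of human PFSK-1 cells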
Description: SANGER: Inhibition of human PFSK-1 cell growth in a cell viability assay.

A2780 = conditions: Homo sapiens, A2780;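 note: growth inhibition of A2780 cells, read out with a cell viability assay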
Description: SANGER: Inhibition of human A2780 cell growth in a cell viability assay.

NY = conditions: Homo sapiens, NY
Description: SANGER: Inhibition of human NY cell growth in a cell viability assay.

HSC-2 = conditions: Homo sapiens, HSC-2;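 note: growth inhibition of human HSC-2 cells, read out by a cell viability assay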
Description: SANGER: Inhibition of human HSC-2 cell growth in a cell viability assay.

HCC38 = conditions: Homo sapiens, HCC38;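 note: cell viability assay on the human HCC38 cell line, with IC50 marking the concentration that inhibits cell growth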
Description: SANGER: Inhibition of human HCC38 cell growth in a cell viability assay.

DOK = conditions: Homo sapiens, DOK;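 note: cell viability assay read-out, values reflect inhibition of cell growth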
Description: SANGER: Inhibition of human DOK cell growth in a cell viability assay.

A 172 = conditions: Homo sapiens, A 172;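 note: growth inhibition of A172 cells, measured with a cell viability readout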
Description: SANGER: Inhibition of human A172 cell growth in a cell viability assay.

BHT-101 = conditions: Homo sapiens, BHT-101
Description: SANGER: Inhibition of human BHT-101 cell growth in a cell viability assay.

EFM-19 = conditions: Homo sapiens, EFM-19;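 note: growth inhibition of human EFM-19 cells, measured in a cell viability assay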
Description: SANGER: Inhibition of human EFM-19 cell growth in a cell viability assay.

AU565 = conditions: Homo sapiens, AU565;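 note: cell viability assay measuring growth inhibition of human AU565 cells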
Description: SANGER: Inhibition of human AU565 cell growth in a cell viability assay.

SMILES	IC50 (NCI-H1623)	IC50 (HO-1-N-1)	IC50 (LCLC-103H cell line)	IC50 (YKG-1)	IC50 (LoVo)	IC50 (RPMI-7951)	IC50 (HSC-3)	IC50 (SCC-25)	IC50 (CAL-62)	IC50 (HEC-1)	IC50 (LK-2)	IC50 (C-33-A)	IC50 (NCI-H2052)	IC50 (NCI-H661)	IC50 (HT-3)	IC50 (WM-115)	IC50 (RMG-I)	IC50 (786-0)	IC50 (HT-29)	IC50 (EPLC-272H)	also measured
COc1cc2c(Nc3ccc(NC(=O)c4ccccc4)cc3)ncnc2cc1OCCCN1CCOCC1	> 4 µM	2.15 µM	> 4 µM	3.14 µM	> 4 µM	> 4 µM	3.37 µM	> 4 µM	> 4 µM	> 4 µM	1.65 µM	> 4 µM	> 4 µM	2.99 µM	> 4 µM	> 4 µM	> 4 µM	> 4 µM	> 4 µM	> 4 µM	IC50 (J82): > 4 µM; IC50 (SW1463): > 4 µM; IC50 (HCC1806): > 4 µM; IC50 (SW13): > 4 µM; IC50 (KYSE-270): > 4 µM; IC50 (BT-20): > 4 µM; IC50 (HT-1080): > 4 µM; IC50 (SK-LU-1): > 4 µM; IC50 (SK-MES-1): > 4 µM; IC50 (PFSK-1): > 4 µM; IC50 (A2780): > 4 µM; IC50 (NY): > 4 µM; IC50 (HSC-2): > 4 µM; IC50 (HCC38): > 4 µM; IC50 (DOK): > 4 µM; IC50 (A 172): 0.984 µM; IC50 (BHT-101): > 4 µM; IC50 (EFM-19): > 4 µM; IC50 (AU565): > 4 µM
Cn1cnc2c(F)c(Nc3ccc(Br)cc3Cl)c(C(=O)NOCCO)cc21 [SELUMETINIB]	> 4 µM	0.741 µM	> 4 µM	> 4 µM	1.06 µM	> 4 µM	1.19 µM	> 4 µM	1.52 µM	> 4 µM	> 4 µM	> 4 µM	> 4 µM	> 4 µM	> 4 µM	0.268 µM	> 4 µM	> 4 µM	0.873 µM	> 4 µM	IC50 (SW1463): > 4 µM; IC50 (HCC1806): > 4 µM; IC50 (KYSE-270): > 4 µM; IC50 (BT-20): > 4 µM; IC50 (HT-1080): 2.43 µM; IC50 (SK-LU-1): 3.86 µM; IC50 (SK-MES-1): > 4 µM; IC50 (PFSK-1): > 4 µM; IC50 (A2780): > 4 µM; IC50 (NY): > 4 µM; IC50 (HSC-2): > 4 µM; IC50 (HCC38): > 4 µM; IC50 (DOK): 0.147 µM; IC50 (BHT-101): 0.107 µM; IC50 (EFM-19): > 4 µM; IC50 (AU565): > 4 µM
CC1(C)CNc2cc(NC(=O)c3cccnc3NCc3ccncc3)ccc21 [MOTESANIB]	> 2 µM	> 2 µM	> 2 µM	> 2 µM	> 2 µM	> 2 µM	> 2 µM	> 2 µM	> 2 µM	> 2 µM	> 2 µM	> 2 µM	> 2 µM	> 2 µM	> 2 µM	> 2 µM	> 2 µM	> 2 µM	> 2 µM	> 2 µM	IC50 (J82): > 2 µM; IC50 (SW1463): > 2 µM; IC50 (HCC1806): > 2 µM; IC50 (SW13): > 2 µM; IC50 (KYSE-270): > 2 µM; IC50 (BT-20): > 2 µM; IC50 (HT-1080): > 2 µM; IC50 (SK-LU-1): > 2 µM; IC50 (SK-MES-1): > 2 µM; IC50 (PFSK-1): > 2 µM; IC50 (A2780): > 2 µM; IC50 (NY): > 2 µM; IC50 (HSC-2): > 2 µM; IC50 (HCC38): > 2 µM; IC50 (DOK): > 2 µM; IC50 (A 172): > 2 µM; IC50 (BHT-101): > 2 µM; IC50 (EFM-19): > 2 µM; IC50 (AU565): > 2 µM
